Data published in patent EP0234708A1, “Tetrahydrocarbazole 1-alkanoic acids” (MERCK FROSST CANADA INC., priority 1986, dated 1987).

Columns and labels:
[1] = target: T1, Human Platelets (Homo sapiens, UniProt P21731); test: Inhibition of induced threshold aggregation of human platelets (aggregating agent U44069, platelet rich plasma); format: cell-based; details: for IC50: human platelet rich plasma, threshold aggregation induced by U44069, read-out: Inhibition of platelet aggregation (IC50 in µg/ml) (converted)
T1 sequence (P21731 1-343): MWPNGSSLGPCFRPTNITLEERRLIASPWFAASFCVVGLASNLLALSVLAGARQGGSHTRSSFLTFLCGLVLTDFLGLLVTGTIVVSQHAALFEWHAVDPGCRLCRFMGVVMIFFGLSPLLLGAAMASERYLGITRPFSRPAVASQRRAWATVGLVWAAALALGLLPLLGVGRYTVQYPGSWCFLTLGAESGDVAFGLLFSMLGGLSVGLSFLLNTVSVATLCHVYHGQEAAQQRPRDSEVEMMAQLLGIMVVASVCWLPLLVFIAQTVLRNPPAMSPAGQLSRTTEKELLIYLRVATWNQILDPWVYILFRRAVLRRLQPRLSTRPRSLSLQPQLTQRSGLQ
Protocol: Inhibition of Induced Threshold Aggregation of Human
Human platelet rich plasma (PRP) is prepared from venous blood of male volunteers who have taken no medication for ten days prior to test. […] The supernatant (PRP) is transferred into plastic tubes. Platelet poor plasma (PPP) is obtained by centrifuging the residual blood cells at 4000 g for ten minutes. PRP is left to stand at least one half hour prior to testing.
Platelet Aggregation is measured using a Payton Aggregometer and Recorder. […] Drug vehicle (control), or a drug concentration is then added in a volume of 0.5 microliter. After one minute, the aggregating agent (U44069, 9,11-dideoxy-9α,11α-epoxymethano PGF 2a ) is added to the cuvette in a volume of 25 microliters. Recording is continued until the maximal response is obtained.
The threshold (approximately 20 - 30% of maximum) aggregation concentration of the agonist to be used is first determined in the presence of the drug vehicle (control). […] All drugs are dissolved in dimethylsulfoxide.
The height of the aggregation response (measured in divisions of the recorder paper, 1 division × 2.5 mm) in the presence of the drug is recorded, and calculated as percent inhibition of the mean height of the control threshold responses.

[2] = test system: Guinea Pig Tracheal Chain; test: Estimation of pA2 values in guinea pig tracheal chain (contractile agonist U-44069); parameters: species or system guinea pigs; details: for pA2 / Kb: guinea pig tracheal chain, antagonism of U-44069 contraction, logarithmic scale; for Kb: Cavia porcellus; for prostanoid antagonist activity (statement in words): Table 4 data (platelet aggregation and pA2)
Source text: Estimation of pA2 Values in Guinea Pig Tracheal Chain
Male albino Hartley strain guinea pigs (300-350 gm) were sacrificed by a blow to the head and exsanguinated. The trachea was removed, freed of extraneous tissue and sectioned into rings of 1-2 mm thickness. Five rings were tied together in series, ensuring that the tracheal muscle lay in the same vertical plane, and the cartilage of each ring then separated at a point directly opposite the muscle. The chains were suspended under 1 gm resting tension in modified Krebs solution (NaCl, 6.87; NaHCO3, 2.1; dextrose, 2.1; KC1, 0.32; CaCl2, 0.28; MgSO4, 7H 0, 0.11; KH2PO4, 0.16; gm/L: equilibrated with 5% C02 in O2 for 1 hour) containing indomethacin (1.4 x 10^-5M) to suppress endogenous protaglandin synthesis, Organ bath temperature was maintained at 37°C and 5% C02 in 02 diffused continously. Isometric tension changes were recorded from a Gould-Statham (UTC 2) force displacement transducer connected to a Beckman Type R Dynograph. For assay purposes initial maximal contractions were elicited with a high concentration of the contractile agonist [U-44069, 9.11-dideoxy-9α,11α-epoxymethano PGF2α] and the tissue subsequently washed at intervals until tension returned to baseline. Agonist dose response curves were obtained using a cumulative-dose schedule (4-8 doses) and the preparations then washed at regular intervals until baseline tension was recorded. After an appropriate interval (1-1.5 hrs) agonist dose response curves were repeated in the presence of antagonist drug concentrations. […] EC50 values were obtained by regression analysis and used to calculate 'apparent' and Schild Plot pA2 values by the method of Tallarida and Murray 1981.

Structure (SMILES)	IC50 [1] [nM]	pA2 [2]	Kb [2] [nM]	prostanoid antagonist activity (statement in words) [2]	times less potent as an inhibitor of platelet aggregation ([1]; compared with compound 2)	pA2 is a factor less than that of compound 2 ([2]; compared with compound 2, printed as antilog of 1.6)
O=C(O)CC1CCCc2c1n(Cc1ccc(Cl)cc1)c1ccc(F)cc21 (single isomer, unassigned; (-)) [Compound 3, (-)9-p-chlorobenzyl-6-fluoro-1,2,3,4-tetrahydro-carbazol-1-yl-acetic acid]	134	8.0	–	–	–	–
COc1ccc2c(c1)c1c(n2Cc2ccc(Cl)cc2)CC(C(=O)O)CC1 (stereo not drawn) [B]	> 81100	–	> 1000	no significant activity	–	–
COc1ccc2c(c1)c1cccc(CC(=O)O)c1n2Cc1ccc(Cl)cc1 [C]	> 79000	–	263	does not possess any significant activity	–	–
O=C(O)CC1CCCc2c1n(Cc1ccc(Cl)cc1)c1ccc(F)cc21 (stereo not drawn) [Compound 1, 9-p-chlorobenzyl-6-fluoro-1,2,3,4-tetrahydrocarbazol-1-yl-acetic acid]	80.7	8.6	–	–	–	–
COc1ccc2c(c1)c1c(n2Cc2ccc(Cl)cc2)C(CC(=O)O)CCC1 (stereo not drawn) [Compound 2, 9-p-chlorobenzyl-6-methoxy-1,2,3,4-tetrahydrocarbazol-1-yl-acetic acid]	782	–	3.98	–	–	–
COc1ccc(Cn2c3c(c4cc(F)ccc42)CCCC3CC(=O)O)cc1 (stereo not drawn) [Compound 6, 9-p-methoxybenzyl-6-fluoro-1,2,3,4-tetrahydrocarbazol-1-yl-acetic acid]	408	–	2	–	–	–
O=C(O)CC1CCCc2c1n(Cc1ccc(Cl)c(Cl)c1)c1ccc(F)cc21 (stereo not drawn) [Compound 7, 9-(3,4-dichloro)benzyl-6-fluoro-1,2,3,4-tetrahydro-carbazol-1-yl-acetic acid]	222	–	5.01	–	–	–
CC(c1ccccc1)n1c2c(c3cc(F)ccc31)CCCC2CC(=O)O (stereo not drawn) [Compound 8, 9-[1-(1-phenyl)ethyl]-6-fluoro-1,2,3,4-tetrahydro-carbazol-1-yl-acetic acid]	256	–	> 1000	–	–	–
O=C(O)CC1CCCc2c1n(Cc1ccc(Cl)cc1)c1ccccc21 (stereo not drawn) [Compound 9, 9-p-chlorobenzyl-1,2,3,4-tetrahydrocarbazol-1-yl-acetic acid]	141	–	1.26	–	–	–
O=C(O)CC1CCCc2c1n(Cc1ccc(Cl)cc1)c1ccc(Cl)cc21 (stereo not drawn) [Compound 10, 9-p-chlcrobenzyl-6-chloro-1,2,3,4-tetrahydrocarbazol-1-yl-acetic acid]	258	–	10	–	–	–
Cc1cccc2c3c(n(Cc4ccc(Cl)cc4)c12)C(CC(=O)O)CCC3 (stereo not drawn) [Compound 11, 9-p-chlorobenzyl-8-methyl-l,2,3,4-tetrahydrocarbazol-1-yl-acetic acid]	272	–	0.316	–	–	–
O=C(O)CC1CCCc2c1n(Cc1ccc(Cl)cc1)c1ccc(Br)cc21 (stereo not drawn) [Compound 12, 6-bromo-9-p-chlorobenzyl-l,2,3,4-tetrahydrocarbazol-l-yl-acetic acid]	208	–	12.6	–	–	–
Cc1ccc2c(c1)c1c(n2Cc2ccc(Cl)cc2)C(CC(=O)O)CCC1 (stereo not drawn) [Compound 13, 9-p-chlorobenzyl-6-methyl-1,2,3,4-tetrahydrocarbazol-1-yl-acetic acid]	217	–	25.1	–	–	–
O=C(O)CC1CCCc2c1n(Cc1ccc(Cl)cc1)c1c(F)cccc21 (stereo not drawn) [Compound 14, 9-p-chlorobenzyl-8 fluoro-1,2,3,4-tetrahydrocarbazol-1-yl-acetic acid]	215	–	0.398	–	–	–
O=C(O)CC1CCCc2c1n(Cc1ccc(Cl)cc1)c1cccc(F)c21 (stereo not drawn) [Compound 16, 9-p-chlorobenzyl-5-fluoro-1,2,3,4-tetrahydrocarbazol-1-yl-acetic acid]	457	–	1.26	–	–	–
O=C(O)CC1CCCc2c1n(Cc1ccc(Cl)cc1)c1c(Cl)cc(Cl)cc21 (stereo not drawn) [Compound 19, 9-p-chlorobenzyl-6,8-dichloro-1,2,3,4-tetrahydro-carbazol-1-yl-acetic acid]	166	–	63.1	–	–	–
CC(C(=O)O)C1CCCc2c1n(Cc1ccc(Cl)cc1)c1ccc(F)cc21 (stereo not drawn) [Compound 20, 2-[9-p-chlorobenzyl-6-fluoro-1,2,3,4-tetrahydro-carbazol-1-yl-]propanoic acid]	803	–	158	–	–	–
COc1ccc2c(c1)c1c(n2Cc2ccc(Cl)cc2)CC(CC(=O)O)CC1 (stereo not drawn) [Compound A, reference compound]	9120	–	158	–	~12	14
O=C(O)CC1CCCc2c1[nH]c1ccc(F)cc21 (stereo not drawn) [Compound F, 6-fluoro-1,2,3,4-tetrahydrocarbazol-1-yl-acetic acid]	13800	–	> 1000	severe loss of activity	–	–
O=C(O)CC1CCCc2c1n(CCc1ccc(Cl)cc1)c1ccc(F)cc21 (stereo not drawn) [Compound H, 9-[1-(2-p-chlorophenyl)ethyl]-6-fluoro-1,2,3,4-tetra-hydrocarbazol-1-yl-acetic acid]	35200	–	158	serious loss of activity	–	–
COc1ccc2c(c1)c1c(n2Cc2ccc(Cl)cc2)CCCC1C(=O)O (stereo not drawn) [D]	–	–	> 1000	severe loss of activity	–	–
COc1ccc2c(c1)c1c(n2Cc2ccc(Cl)cc2)C(C(=O)O)CCC1 (stereo not drawn) [E]	11400	–	219	severe loss of activity	–	–
CC(C)n1c2c(c3cc(F)ccc31)CCCC2CC(=O)O (stereo not drawn) [G, 6-fluoro-9-isopropyl-1,2,3,4-tetrahydrocarbazol-1-yl-acetic acid]	47000	–	> 1000	almost completely lost activity	–	–
